The source of these data is US6586368B1, “Condensed heterocylic compounds and herbicides containing them” (Sumitomo Chemical Company, Limited, priority 1998, dated 2003).

What all share (type): in vivo
Assay [1] deals with velvetleaf (Abutilon theophrasti). Kind of assay: Test Example 1: foliage treatment of velvetleaf in pots, herbicidal activity. The settings on record: emulsifiable concentrate sprayed over the foliage, dosage of 2000 g/ha, 1000 liters per hectare, plants 14 days after seeding, examined after 8 days in greenhouse.
For assay [2] the test system is unchanged. Kind of assay: Test Example 3: soil surface treatment, velvetleaf seeded in pots, herbicidal activity. The conditions noted are these: emulsifiable concentrate sprayed over the surface of the soil after seeding, dosage of 2000 g/ha, 1000 liters per hectare, examined after 9 days in greenhouse.
In assay [3] the test system is barnyardgrass (Echinochloa oryzicola). The experiment in a line: Test Example 4: flooded paddy field treatment of barnyardgrass in pots, herbicidal activity. The settings on record: emulsifiable concentrate applied on the water surface of flooded pots, dosage of 1000 g/ha, 50 liters per are, plants 12 days after seeding, examined after 9 days in greenhouse.
Assay [4] deals with velvetleaf (Abutilon theophrasti). Kind of assay: Test Example 2: foliage treatment of velvetleaf in pots, herbicidal activity. The settings on record: emulsifiable concentrate sprayed over the foliage, dosage of 8000 g/ha, 1000 liters per hectare, plants 14 days after seeding, examined after 5 days in greenhouse. The protocol: Cylindrical plastic pots of 10 cm in diameter and 10 cm in depth were filled with soil, seeded with velvetleaf (Abutilon theophrasti), and kept in a greenhouse for 14 days. After that, according to Formulation Example 2, compound 2-2001 or 3-2001 was formulated into an emulsifiable concentrate, which was diluted in a prescribed amount with water containing a spreading agent and then uniformly sprayed over the foliage of the plants with a sprayer at a ratio of 1000 liters per hectare. The pots were further kept in the greenhouse for 5 days and examined for herbicidal activity.

Regarding `Cn1c(C(F)(F)F)cc(=O)n(-c2coc3ccc(C(N)=O)cc23)c1=O` [Compound 1-293], the “herbicidal activity: growth of velvetleaf” value in assay [1] was “completely inhibited the growth”. Also, the “herbicidal activity: germination of velvetleaf” value (“herbicidal activity: germination” below) in assay [2] is “completely inhibited the germination”. In addition, in assay [3], the “herbicidal activity: growth of barnyardgrass” value was “completely inhibited the growth”.
With `Cn1c(C(F)(F)F)cc(=O)n(-c2coc3c(Cl)cc(Cl)cc23)c1=O` [Compound 1-2, 3-(5,7-Dichlorobenzo[b]furan-3-yl)-1-methyl-6-(trifluoromethyl)-1,2,3,4-tetrahydropyrimidine-2,4-dione], the “herbicidal activity: growth of velvetleaf” value in assay [1] is given as “completely inhibited the growth”. Besides, the “herbicidal activity: germination” value in assay [2] was “completely inhibited the germination”. Also, in assay [3], the “herbicidal activity: growth of barnyardgrass” value is “completely inhibited the growth”.
On to `CCOC(=O)C(Cl)Cc1ccc2occ(-n3c(=O)cc(C(F)(F)F)n(C)c3=O)c2c1` (centres unmarked) [Compound 1-407], for which the “herbicidal activity: growth of velvetleaf” value in assay [1] is on record as “completely inhibited the growth”. Also, in assay [2], the “herbicidal activity: germination” value is “completely inhibited the germination”. The “herbicidal activity: growth of barnyardgrass” value in assay [3] is given as “completely inhibited the growth”.
As to `O=c1cc(C(F)(F)F)ncn1-n1ccc2ccccc21` [Compound 3-2001], in assay [4], the “herbicidal activity: kill of velvetleaf” value was “completely killed”.
Take `CSc1cc2c(-n3c(=O)cc(C(F)(F)F)n(C)c3=O)coc2cc1[N+](=O)[O-]` [Compound 1-201, 1-Methyl-3-[5-(methylthio)-6-nitrobenzo[b]furan-3-yl]-6-(trifluoromethyl)-1,2,3,4-tetrahydropyrimidine-2,4-dione]: the “herbicidal activity: growth of velvetleaf” value in assay [1] is recorded as “completely inhibited the growth”. For the same molecule, the “herbicidal activity: germination” value in assay [2] is “completely inhibited the germination”. Also, the “herbicidal activity: growth of barnyardgrass” value in assay [3] is recorded as “completely inhibited the growth”.
On to `COC(=O)c1ccc2occ(-n3c(=O)cc(C(F)(F)F)n(C)c3=O)c2c1` [Compound 1-303, Methyl 3-[3-methyl-2,6-dioxo-4-(trifluoromethyl)-1,2,3,6-tetrahydropyrimidin-1-yl]benzo[b]furan-5-carboxylate], for which, in assay [1], the “herbicidal activity: growth of velvetleaf” value is given as “completely inhibited the growth”. Also, in assay [2], the “herbicidal activity: germination” value is “completely inhibited the germination”. The “herbicidal activity: growth of barnyardgrass” value in assay [3] is on record as “completely inhibited the growth”.
Regarding `COc1cc2c(-n3c(=O)cc(C(F)(F)F)n(C)c3=O)coc2cc1Cl` [Compound 1-84, 3-(6-Chloro-5-methoxybenzo[b]furan-3-yl)-1-methyl-6-(trifluoromethyl)-1,2,3,4-tetrahydropyrimidine-2,4-dione], in assay [1], the “herbicidal activity: growth of velvetleaf” value was “completely inhibited the growth”. For the same molecule, the “herbicidal activity: germination” value in assay [2] was “completely inhibited the germination”. For the same molecule, the “herbicidal activity: growth of barnyardgrass” value in assay [3] is listed as “completely inhibited the growth”.
`CCOC(=O)C(C)Sc1cc2c(-n3c(=O)cc(C(F)(F)F)n(C)c3=O)coc2cc1[N+](=O)[O-]` (centres unmarked) [Compound 1-246, Ethyl 2-({3-[3-methyl-2,6-dioxo-4-(trifluoromethyl)-1,2,3,6-tetrahydropyrimidin-1-yl]-6-nitrobenzo[b]furan-5-yl}thio)propanoate]: the “herbicidal activity: growth of velvetleaf” value in assay [1] is given as “completely inhibited the growth”. Besides, the “herbicidal activity: germination” value in assay [2] is given as “completely inhibited the germination”. Also, in assay [3], the “herbicidal activity: growth of barnyardgrass” value was “completely inhibited the growth”.
As to `Cn1c(C(F)(F)F)cc(=O)n(-c2coc3cc(Cl)ccc23)c1=O` [Compound 1-861], in assay [1], the “herbicidal activity: growth of velvetleaf” value is “completely inhibited the growth”. The “herbicidal activity: germination” value in assay [2] is reported as “completely inhibited the germination”. Also, the “herbicidal activity: growth of barnyardgrass” value in assay [3] is given as “completely inhibited the growth”.
Consider `CCOC(=O)C(C)Oc1cc2c(-n3c(=O)cc(C(F)(F)F)n(C)c3=O)coc2cc1Cl` (centres unmarked) [Compound 1-129, Ethyl 2-({6-chloro-3-[3-methyl-2,6-dioxo-4-(trifluoromethyl)-1,2,3,6-tetrahydropyrimidin-1-yl]benzo[b]furan-5-yl}oxy)propanoate], for which the “herbicidal activity: growth of velvetleaf” value in assay [1] is listed as “completely inhibited the growth”. Also, the “herbicidal activity: germination” value in assay [2] was “completely inhibited the germination”. For the same molecule, in assay [3], the “herbicidal activity: growth of barnyardgrass” value is “completely inhibited the growth”.
Turning to `Cn1c(C(F)(F)F)cc(=O)n(-c2coc3cc([N+](=O)[O-])c(F)cc23)c1=O` [Compound 1-431], the “herbicidal activity: growth of velvetleaf” value in assay [1] is listed as “completely inhibited the growth”. Further, the “herbicidal activity: germination” value in assay [2] was “completely inhibited the germination”. Also, the “herbicidal activity: growth of barnyardgrass” value in assay [3] is listed as “completely inhibited the growth”.
For `Cn1c(C(F)(F)F)cc(=O)n(-c2coc3ccc(Cl)cc23)c1=O` [Compound 1-4], the “herbicidal activity: growth of velvetleaf” value in assay [1] was “completely inhibited the growth”. Moreover, in assay [2], the “herbicidal activity: germination” value is listed as “completely inhibited the germination”. Further, in assay [3], the “herbicidal activity: growth of barnyardgrass” value is “completely inhibited the growth”.
Consider `O=C1C2=C(CCCC2)C(=O)N1n1ccc2ccccc21` [Compound 2-2001], for which the “herbicidal activity: kill of velvetleaf” value in assay [4] was “completely killed”.
On to `CN(C)c1ccc2occ(-n3c(=O)cc(C(F)(F)F)n(C)c3=O)c2c1` [Compound 1-9], for which, in assay [1], the “herbicidal activity: growth of velvetleaf” value is given as “completely inhibited the growth”. Moreover, in assay [2], the “herbicidal activity: germination” value is given as “completely inhibited the germination”. Moreover, the “herbicidal activity: growth of barnyardgrass” value in assay [3] is reported as “completely inhibited the growth”.
For `Cc1cc(Cl)c2occ(-n3c(=O)cc(C(F)(F)F)n(C)c3=O)c2c1` [Compound 1-358], the “herbicidal activity: growth of velvetleaf” value in assay [1] is listed as “completely inhibited the growth”. Moreover, the “herbicidal activity: germination” value in assay [2] is “completely inhibited the germination”. Besides, in assay [3], the “herbicidal activity: growth of barnyardgrass” value was “completely inhibited the growth”.
In the case of `COc1cc2c(-n3c(=O)cc(C(F)(F)F)n(C)c3=O)coc2cc1[N+](=O)[O-]` [Compound 1-86, 3-(5-Methoxy-6-nitrobenzo[b]furan-3-yl)-1-methyl-6-(trifluoromethyl)-1,2,3,4-tetrahydropyrimidine-2,4-dione], in assay [1], the “herbicidal activity: growth of velvetleaf” value is recorded as “completely inhibited the growth”. Further, the “herbicidal activity: germination” value in assay [2] was “completely inhibited the germination”. Also, the “herbicidal activity: growth of barnyardgrass” value in assay [3] is “completely inhibited the growth”.
Turning to `Cn1c(C(F)(F)F)cc(=O)n(-c2coc3ccc(Br)cc23)c1=O` [Compound 1-75], the “herbicidal activity: growth of velvetleaf” value in assay [1] is “completely inhibited the growth”. Besides, in assay [2], the “herbicidal activity: germination” value is recorded as “completely inhibited the germination”. Besides, the “herbicidal activity: growth of barnyardgrass” value in assay [3] is “completely inhibited the growth”.
Consider `Cn1c(C(F)(F)F)cc(=O)n(-c2coc3ccccc23)c1=O` [Compound 1-1], for which, in assay [1], the “herbicidal activity: growth of velvetleaf” value is on record as “completely inhibited the growth”. In addition, in assay [2], the “herbicidal activity: germination” value was “completely inhibited the germination”. In addition, the “herbicidal activity: growth of barnyardgrass” value in assay [3] is recorded as “completely inhibited the growth”.
As to `Cn1c(C(F)(F)F)cc(=O)n(-c2csc3ccccc23)c1=O` [Compound 1-3], in assay [1], the “herbicidal activity: growth of velvetleaf” value is “completely inhibited the growth”. Further, in assay [2], the “herbicidal activity: germination” value is “completely inhibited the germination”. Further, in assay [3], the “herbicidal activity: growth of barnyardgrass” value is “completely inhibited the growth”.
Consider `CCOC(=O)C=Cc1cc(Cl)c2occ(-n3c(=O)cc(C(F)(F)F)n(C)c3=O)c2c1` [Compound 1-378], for which the “herbicidal activity: growth of velvetleaf” value in assay [1] is “completely inhibited the growth”. Moreover, the “herbicidal activity: germination” value in assay [2] is given as “completely inhibited the germination”. Besides, the “herbicidal activity: growth of barnyardgrass” value in assay [3] is reported as “completely inhibited the growth”.
With `Cn1c(C(F)(F)F)cc(=O)n(-c2coc3ccc(NS(C)(=O)=O)cc23)c1=O` [Compound 1-10], the “herbicidal activity: growth of velvetleaf” value in assay [1] is “completely inhibited the growth”. The “herbicidal activity: germination” value in assay [2] is “completely inhibited the germination”. Moreover, the “herbicidal activity: growth of barnyardgrass” value in assay [3] was “completely inhibited the growth”.
